This is an account of results in ChEMBL document CHEMBL1201862, “PubChem BioAssay data set” (2004).

The test system of one assay is Streptococcus. In words: GAS UMAA2166 growth inhibition – luminescence, BacTiterGlo, counter-screen for streptokinase expression inhibitor project, dose response (AID 1915).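 Note: potency for reduction of bacterial viability or growth.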 Format: functional, organism-based. (In general: The purpose of a counterscreen is to sort out artefacts and off-target activity.)
Assay [1] has as its system Streptococcus sp. 'group A'. In words: Streptococcus pyogenes SK(-)GAS viability under kanamycin – luminescence, BacTiterGlo, confirmation, counter-screen for streptokinase expression inhibitor project, dose response (AID 1900). Format: functional, organism-based.
The test system of the next assay is INS1. In words: INS-1E survival protection against cytokine death – cell-based, luminescence, retest, dose response (AID 449756).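 Note: cell death triggered by IL-1 beta plus TNF-alpha plus IFN-gamma mixture; protective hits raise ATP signal compared with cytokine alone wells.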 Format: functional. Particulars: Rattus norvegicus.
A short description of assay [2]: Luminescence Cell-Based Dose Retest to Confirm Inhibitors of Cancer Stem Cells. [Related pubchem assays (depositor defined):AID2717, AID2721]. Conditions: Homo sapiens. Format: functional.
A short description of assay [3]: Trypanosoma cruzi growth suppression in host cells – NIH3T3 host cells, beta-gal luminescence, confirmation (AID 2044).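 Note: intracellular parasites grown in NIH/3T3 mouse fibroblasts as host cells; luminescent beta-galactosidase reporter signal from transgenic T. cruzi replicating inside host cells; inhibitors lower the luminescence signal.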 Format: functional, cell-based.
The nature of assay [4]: NIH3T3 cell viability loss – ATP luminescence, mouse fibroblasts, counter-screen, dose response (AID 2010).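 Note: cells exposed to compound for about 90 hours before reading.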 Format: functional, cell-based.

Structures are written as SMILES. The source made the active and inactive calls.

One may read the EC50 as the concentration needed to bring the measured effect to its halfway point. In general, AC50 refers to the concentration giving half of the maximal activity seen.

For `COC(=O)c1cccc(NC(S)=NCc2ccc(Cl)cc2)c1`, the EC50 is 15800 nM (active) in the assay with Streptococcus and 13000 nM (active) in assay [1].

With `NNc1ncnc2scc(-c3ccc(Cl)cc3)c12`, the AC50 in the assay on INS1 is 6340 nM (active).

With `Cc1nnc(SCC2=C(C(=O)O)N3C(=O)C(NC(=O)Cn4nc(C)c(Cl)c4C)C3SC2)s1` (centres undefined), the results for the EC50 (in the assay on Streptococcus; in assay [1]) were 115 nM (active) and < 60 nM (active), respectively.

As for `O=C(C[n+]1ccccc1)NNc1ccccc1`, the AC50 in assay [2] was 1470 nM (active).

In the case of `CCOC(=O)c1ccc(Nc2cc(C)nc(-c3ccccc3)n2)cc1`, in assay [2], the half-maximal activity concentration (AC50) is 2100 nM (active).

In the case of `COc1ccc(OC)c(-c2cc(-c3cccnc3)nc(N)c2C#N)c1`, the AC50 in assay [2] is 766 nM (active).

For the molecule `CC1(C)C(C=C(Cl)Cl)C1C(=O)Nc1ccc([N+](=O)[O-])cc1` (centres undefined), the AC50 with INS1 is 7670 nM (active).

For the molecule `Cn1c(-c2ccccc2)cc2c3no[n+]([O-])c3ccc21`, in the assay with INS1, the AC50 was 2090 nM (active). Further, the EC50 is 707 nM (active) in assay [3] and 8010 nM (active) in assay [4].

On to `CC(=O)Nc1ccc(C2=CC(=O)C[C@H](c3ccc4c(c3)OCO4)C2)cc1`, for which the AC50 in the assay on INS1 is > 260000 nM (inactive).

In the case of `O=C(NCC(c1cccs1)N1CCOCC1)c1ccc(Cl)s1` (centres undefined), in assay [2], the AC50 was 2890 nM (active).

Take `CCc1c(C)sc(NC(=O)/C=C/c2ccc3c(c2)OCO3)c1C(=O)OC`: the AC50 in assay [2] was 768 nM (active).

Consider `CCOCCCNC(=O)c1cnc2cc(OC)ccc2c1O`, for which the AC50 in the assay on INS1 is > 260000 nM (inactive).

Turning to `COc1ccc(-c2nn(-c3ccccc3)cc2/C=N/Nc2ccc3ccccc3n2)cc1OC`, the half-maximal activity concentration (AC50) in the assay with INS1 is 1500 nM (active).

Regarding `CCc1ccc(-n2c(C)cc(/C=N/NC(=O)c3ccncc3)c2C)cc1`, the AC50 with INS1 is 14900 nM (active).

As for `COc1cc([N+](=O)[O-])ccc1NC(=O)CC1S/C(=N\c2ccc(F)cc2)N(CCC2=CCCCC2)C1=O` (centres undefined), the AC50 in the assay with INS1 is 4290 nM (active).
